# Assay results from patent US10513521B2, “Compositions and methods for inhibiting BMP” (The Brigham and Women's Hospital, Inc., priority 2014, dated 2019).
# Where a chain is given by its changes, count along the chain named. pIC50: −log10 of the molar value.
# Experiments:
# ALK2 [1] = target: T1, ALK2 (Homo sapiens, UniProt Q04771); experiment: TR-FRET enzymatic ALK kinase assay, ALK2
# T1 sequence (Q04771 21-509): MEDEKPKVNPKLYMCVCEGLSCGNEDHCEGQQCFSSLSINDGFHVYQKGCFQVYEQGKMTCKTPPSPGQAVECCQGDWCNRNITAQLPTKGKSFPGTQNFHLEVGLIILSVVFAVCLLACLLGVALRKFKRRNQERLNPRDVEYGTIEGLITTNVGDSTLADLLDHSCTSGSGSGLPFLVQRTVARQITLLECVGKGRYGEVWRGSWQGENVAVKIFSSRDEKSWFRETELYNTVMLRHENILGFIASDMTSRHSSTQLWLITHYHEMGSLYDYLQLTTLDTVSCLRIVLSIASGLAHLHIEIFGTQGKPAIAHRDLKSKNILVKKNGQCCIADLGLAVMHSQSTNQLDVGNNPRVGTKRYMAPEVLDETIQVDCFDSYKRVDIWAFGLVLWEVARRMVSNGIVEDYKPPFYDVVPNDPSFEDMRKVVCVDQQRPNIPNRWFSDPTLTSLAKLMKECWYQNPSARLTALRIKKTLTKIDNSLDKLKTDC
# Method: (§1) Briefly, the ALKs enzymatic assay was initiated by dispense 2.5 μl enzyme in 1× kinase reaction buffer. The assay plate was then added with compounds followed by incubation at room temperature for 10 minutes. Then 2.5 μl/well substrate was added.
# ALK3 = ALK3 (Homo sapiens, UniProt P36894); experiment: TR-FRET enzymatic ALK kinase assay, ALK3
# Sequence of ALK3 (P36894 24-532): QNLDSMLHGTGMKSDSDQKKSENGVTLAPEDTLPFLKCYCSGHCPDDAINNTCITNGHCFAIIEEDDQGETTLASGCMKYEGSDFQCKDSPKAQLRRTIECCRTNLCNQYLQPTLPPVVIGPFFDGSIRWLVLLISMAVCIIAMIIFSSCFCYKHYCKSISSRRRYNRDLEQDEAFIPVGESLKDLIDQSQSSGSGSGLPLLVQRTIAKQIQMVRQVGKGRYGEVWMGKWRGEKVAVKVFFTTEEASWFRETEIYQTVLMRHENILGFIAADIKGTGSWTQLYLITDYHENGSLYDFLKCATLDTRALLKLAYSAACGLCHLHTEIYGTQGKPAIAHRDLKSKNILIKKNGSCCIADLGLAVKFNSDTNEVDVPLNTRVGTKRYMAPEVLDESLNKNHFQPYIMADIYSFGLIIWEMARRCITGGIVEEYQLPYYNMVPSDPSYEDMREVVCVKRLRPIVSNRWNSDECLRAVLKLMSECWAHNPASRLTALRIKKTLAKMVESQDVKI
# Method: as §1
# ALK2 [2] = target: T2, ALK2 (Mus musculus, UniProt P37172); experiment: HTRF pSMAD1 cell-based ALK2 assay (C2C12 cells, BMP6 as agonist); details: cell-based assay, BMP6; read-out: Cell IC50 BMP6
# T2 construct: The C2C12 cell line was selected for the measurement of ALK2 activity using BMP6 as the agonist; host or cells: C2C12
# T2 sequence (P37172 21-509): T1 sequence (Q04771 21-509) with M1V, P10Q, L121I, D162E, P310S
# Procedure, shortened: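 Phospho-SMAD1 HTRF readout, detection incubated overnight at room temperature. Before that: starved cells in 0.1% FBS for 4 h, 30 min compound pretreatment, then 30 min agonist, BMP6 on C2C12 or BMP9 on BAOEC.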
# ALK6 = ALK6 (Homo sapiens, UniProt O00238); experiment: TR-FRET enzymatic ALK kinase assay, ALK6
# Sequence of ALK6 (O00238 14-502): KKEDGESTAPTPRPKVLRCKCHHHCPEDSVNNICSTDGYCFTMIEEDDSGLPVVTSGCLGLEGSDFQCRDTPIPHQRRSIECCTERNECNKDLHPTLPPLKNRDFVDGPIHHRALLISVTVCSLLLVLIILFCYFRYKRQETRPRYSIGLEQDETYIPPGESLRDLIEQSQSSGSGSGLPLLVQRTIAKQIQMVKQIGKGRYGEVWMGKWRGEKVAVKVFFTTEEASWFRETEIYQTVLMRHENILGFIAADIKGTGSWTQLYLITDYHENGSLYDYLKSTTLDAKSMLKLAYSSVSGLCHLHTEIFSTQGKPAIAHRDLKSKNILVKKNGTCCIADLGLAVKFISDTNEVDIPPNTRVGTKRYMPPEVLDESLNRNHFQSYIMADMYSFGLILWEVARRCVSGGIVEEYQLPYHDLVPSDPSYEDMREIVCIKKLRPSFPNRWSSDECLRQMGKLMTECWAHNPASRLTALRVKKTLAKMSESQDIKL
# Method: as §1
# ALK1 = ALK1 (Homo sapiens, UniProt P37023); experiment: TR-FRET enzymatic ALK kinase assay, ALK1
# Sequence of ALK1 (P37023 22-503): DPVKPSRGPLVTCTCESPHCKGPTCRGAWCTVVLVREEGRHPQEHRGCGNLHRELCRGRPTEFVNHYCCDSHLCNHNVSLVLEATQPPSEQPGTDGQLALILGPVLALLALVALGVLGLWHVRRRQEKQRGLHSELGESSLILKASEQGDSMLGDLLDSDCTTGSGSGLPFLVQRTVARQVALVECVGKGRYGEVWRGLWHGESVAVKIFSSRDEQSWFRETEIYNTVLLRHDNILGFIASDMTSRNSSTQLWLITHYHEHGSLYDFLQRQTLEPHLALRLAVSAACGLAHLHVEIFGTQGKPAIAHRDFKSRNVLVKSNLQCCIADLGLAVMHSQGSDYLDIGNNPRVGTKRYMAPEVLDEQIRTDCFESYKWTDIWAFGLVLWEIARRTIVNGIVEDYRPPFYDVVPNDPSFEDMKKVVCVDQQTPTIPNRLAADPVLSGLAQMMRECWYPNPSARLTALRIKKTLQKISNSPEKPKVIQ
# Method: as §1
# [3] = Cell-based assay, TGFb1 (Cell IC50)
# ALK4 = target: T3, ALK4 (Homo sapiens, UniProt P36896); experiment: TR-FRET enzymatic ALK kinase assay, ALK4
# T3 sequence (P36896 24-505): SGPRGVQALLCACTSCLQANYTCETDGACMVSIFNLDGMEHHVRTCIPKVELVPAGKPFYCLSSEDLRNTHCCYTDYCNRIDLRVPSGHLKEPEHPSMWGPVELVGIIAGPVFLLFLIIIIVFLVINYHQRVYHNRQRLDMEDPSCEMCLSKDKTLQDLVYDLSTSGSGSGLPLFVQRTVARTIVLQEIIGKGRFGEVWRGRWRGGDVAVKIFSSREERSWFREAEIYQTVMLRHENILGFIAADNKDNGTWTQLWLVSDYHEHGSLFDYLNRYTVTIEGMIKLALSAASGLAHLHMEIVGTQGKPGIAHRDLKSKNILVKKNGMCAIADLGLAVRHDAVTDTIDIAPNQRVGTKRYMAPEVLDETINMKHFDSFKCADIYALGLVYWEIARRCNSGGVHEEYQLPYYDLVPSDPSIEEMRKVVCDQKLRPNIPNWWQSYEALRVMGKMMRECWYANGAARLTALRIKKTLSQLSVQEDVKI
# Method: as §1
# ALK5 = target: T4, ALK5 (Homo sapiens, UniProt P36897); experiment: TR-FRET enzymatic ALK kinase assay, ALK5
# T4 sequence (P36897 34-503): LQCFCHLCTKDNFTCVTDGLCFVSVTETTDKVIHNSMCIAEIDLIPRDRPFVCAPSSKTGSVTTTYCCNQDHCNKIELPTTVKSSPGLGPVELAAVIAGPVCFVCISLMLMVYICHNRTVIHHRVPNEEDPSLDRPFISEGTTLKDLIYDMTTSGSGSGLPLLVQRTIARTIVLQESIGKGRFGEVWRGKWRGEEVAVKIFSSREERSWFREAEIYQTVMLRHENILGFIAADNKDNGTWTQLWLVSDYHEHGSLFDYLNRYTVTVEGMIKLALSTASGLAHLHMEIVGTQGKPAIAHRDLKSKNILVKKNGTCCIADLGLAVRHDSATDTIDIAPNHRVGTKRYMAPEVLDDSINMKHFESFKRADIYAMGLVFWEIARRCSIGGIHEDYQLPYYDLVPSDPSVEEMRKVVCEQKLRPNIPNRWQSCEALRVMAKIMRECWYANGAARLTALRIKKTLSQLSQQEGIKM
# Method: Six ALK kinase enzyme assays were developed for determination of compound activities on ALK1, ALK2, ALK3, ALK4, ALK5 and ALK6.
# as §1
smiles,measurement,setting,value
"O=C(O)c1ccc(-c2cnn3cc(-c4ccc(N5CCNCC5)cc4)cnc23)c2ccccc12 [Compound 1, 4-(6-(4-(piperazin-1-yl)phenyl)pyrazolo[1,5-a]pyrimidin-3-yl)-1-naphthoic acid]",pIC50,ALK2 [1],7.43
same,pIC50,ALK3,6.01
same,pIC50,ALK2 [2],5.06
same,pIC50,ALK6,5.76
same,pIC50,ALK1,6.73
same,pIC50,[3],4.00
"NC(=O)c1ccc(-c2cnn3cc(-c4ccc(N5CCNCC5)cc4)cnc23)c2ccccc12 [Compound 2, 4-(6-(4-(piperazin-1-yl)phenyl)pyrazolo[1,5-a]pyrimidin-3-yl)-1-naphthamide]",pIC50,ALK4,4.95
same,pIC50,ALK2 [1],8.35
same,pIC50,ALK3,6.83
same,pIC50,ALK5,4.25
same,pIC50,ALK2 [2],7.55
same,pIC50,ALK6,5.68
same,pIC50,ALK1,7.74
same,pIC50,[3],6.48
"O=C(O)c1cccc2c(-c3cnn4cc(-c5ccc(N6CCNCC6)cc5)cnc34)cccc12 [Compound 5, 5-(6-(4-(piperazin-1-yl)phenyl)pyrazolo[1,5-a]pyrimidin-3-yl)-1-naphthoic acid]",pIC50,ALK2 [1],8.00
same,pIC50,ALK3,7.77
same,pIC50,ALK2 [2],4.00
same,pIC50,ALK6,7.77
same,pIC50,ALK1,7.35
same,pIC50,[3],4.00
"NC(=O)c1cccc2c(-c3cnn4cc(-c5ccc(N6CCNCC6)cc5)cnc34)cccc12 [Compound 6, 5-(6-(4-(piperazin-1-yl)phenyl)pyrazolo[1,5-a]pyrimidin-3-yl)-1-naphthamide]",pIC50,ALK4,5.57
same,pIC50,ALK2 [1],8.15
same,pIC50,ALK3,7.52
same,pIC50,ALK5,4.95
same,pIC50,ALK2 [2],7.68
same,pIC50,ALK6,6.98
same,pIC50,ALK1,7.51
same,pIC50,[3],6.12
"CNC(=O)c1cccc2c(-c3cnn4cc(-c5ccc(N6CCNCC6)cc5)cnc34)cccc12 [Compound 7, N-methyl-5-(6-(4-(piperazin-1-yl)phenyl)pyrazolo[1,5-a]pyrimidin-3-yl)-1-naphthamide]",pIC50,ALK4,4.51
same,pIC50,ALK2 [1],6.65
same,pIC50,ALK3,6.22
same,pIC50,ALK2 [2],6.55
same,pIC50,ALK6,6.48
same,pIC50,ALK1,5.80
same,pIC50,[3],5.53
"CN(C)C(=O)c1cccc2c(-c3cnn4cc(-c5ccc(N6CCNCC6)cc5)cnc34)cccc12 [Compound 8, N,N-dimethyl-5-(6-(4-(piperazin-1-yl)phenyl)pyrazolo[1,5-a]pyrimidin-3-yl)-1-naphthamide]",pIC50,ALK2 [1],5.18
same,pIC50,ALK3,4.96
same,pIC50,ALK2 [2],5.68
same,pIC50,ALK6,4.68
same,pIC50,ALK1,5.09
same,pIC50,[3],5.26
"C[C@@H]1CNC[C@H](C)N1c1ccc(-c2cnc3c(-c4ccc(C(N)=O)c5ccccc45)cnn3c2)cc1 [Compound 9, 4-(6-(4-((2S,6R)-2,6-dimethylpiperazin-1-yl)phenyl)pyrazolo[1,5-a]pyrimidin-3-yl)-1-naphthamide]",pIC50,ALK4,6.04
same,pIC50,ALK2 [1],8.22
same,pIC50,ALK3,7.38
same,pIC50,ALK5,5.27
same,pIC50,ALK2 [2],7.96
same,pIC50,ALK6,6.65
same,pIC50,ALK1,8.40
same,pIC50,[3],6.70
"NC(=O)c1ccc(-c2cnn3cc(-c4ccc(N5C[C@@H]6C[C@H]5CN6)cc4)cnc23)c2ccccc12 [Compound 11, 4-(6-(4-((1 S,4S)-2,5-diazabicyclo[2.2.1]heptan-2-yl)phenyl)pyrazolo[1,5-a]pyrimidin-3-yl)-1-naphthamide]",pIC50,ALK4,5.52
same,pIC50,ALK2 [1],8.15
same,pIC50,ALK3,6.95
same,pIC50,ALK5,5.15
same,pIC50,ALK2 [2],7.26
same,pIC50,ALK6,5.69
same,pIC50,ALK1,7.52
same,pIC50,[3],6.19
"NC(=O)c1cccc2c(-c3cnn4cc(-c5ccc(N6C[C@@H]7C[C@H]6CN7)cc5)cnc34)cccc12 [Compound 12, 5-(6-(4-((1S,4S)-2,5-diazabicyclo[2.2.1]heptan-2-yl)phenyl)pyrazolo[1,5-a]pyrimidin-3-yl)-1-naphthamide]",pIC50,ALK4,5.55
same,pIC50,ALK2 [1],8.08
same,pIC50,ALK3,7.23
same,pIC50,ALK5,4.67
same,pIC50,ALK2 [2],7.17
same,pIC50,ALK6,6.59
same,pIC50,ALK1,7.47
same,pIC50,[3],5.91
"N/C(=N/O)c1ccc(-c2cnn3cc(-c4ccc(N5CCNCC5)cc4)cnc23)cc1 [Compound 13, N′-hydroxy-4-(6-(4-(piperazin-1-yl)phenyl)pyrazolo[1,5-a]pyrimidin-3-yl)benzimidamide]",pIC50,ALK2 [1],7.42
same,pIC50,ALK3,6.06
same,pIC50,ALK2 [2],6.42
same,pIC50,ALK1,6.56
same,pIC50,[3],5.17
"N=C(N)c1ccc(-c2cnn3cc(-c4ccc(N5CCNCC5)cc4)cnc23)cc1 [Compound 14, 4-(6-(4-(piperazin-1-yl)phenyl)pyrazolo[1,5-a]pyrimidin-3-yl)benzimidamide]",pIC50,ALK2 [1],6.04
same,pIC50,ALK3,4.75
same,pIC50,ALK5,4.81
same,pIC50,ALK2 [2],5.38
same,pIC50,ALK6,4.77
same,pIC50,ALK1,5.51
same,pIC50,[3],4.36
"N=C(N)c1ccc(-c2cnn3cc(-c4ccc(N5CCNCC5)cc4)cnc23)c2ccccc12 [Compound 16, 4-(6-(4-(piperazin-1-yl)phenyl)pyrazolo[1,5-a]pyrimidin-3-yl)-1-naphthimidamide]",pIC50,ALK4,4.13
same,pIC50,ALK2 [1],7.08
same,pIC50,ALK3,5.31
same,pIC50,ALK2 [2],6.05
same,pIC50,ALK6,4.13
same,pIC50,ALK1,6.39
same,pIC50,[3],4.87
"CC(C)(CN1CCCCC1)Oc1ccc(-c2cnc3c(-c4ccc(C(N)=O)c5ccccc45)cnn3c2)cc1 [Compound 17, 4-(6-(4-((2-methyl-1-(piperidin-1-yl)propan-2-yl)oxy)phenyl)pyrazolo[1,5-a]pyrimidin-3-yl)-1-naphthamide]",pIC50,ALK4,5.69
same,pIC50,ALK2 [1],8.30
same,pIC50,ALK3,7.21
same,pIC50,ALK5,5.07
same,pIC50,ALK2 [2],7.80
same,pIC50,ALK6,5.91
same,pIC50,ALK1,7.96
same,pIC50,[3],6.36
"C[C@@H]1CNC[C@H](C)N1c1ccc(-c2cnc3c(-c4ccc(C#N)c5ccccc45)cnn3c2)cc1 [Compound 19, 4-(6-(4-((2R,6S)-2,6-dimethylpiperazin-1-yl)phenyl)pyrazolo[1,5-a]pyrimidin-3-yl)-1-naphthonitrile]",pIC50,ALK4,5.32
same,pIC50,ALK2 [1],7.03
same,pIC50,ALK3,5.96
same,pIC50,ALK5,3.82
same,pIC50,ALK2 [2],7.36
same,pIC50,ALK6,5.01
same,pIC50,ALK1,6.24
same,pIC50,[3],5.35
